Target: T1, human β3 adrenergic receptor (Homo sapiens, UniProt P13945)
T1 construct: expressed in transfected cells
Assay: whole cell receptor coupled c-AMP assay (Emax relative to isoproterenol)
Type: cell-based
Details: % intrinsic activity relative to isoproterenol; transfected CHO cells
Procedure, shortened: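 Stably transfected CHO DXB-11 cells expressing human β3 receptor incubated 20 min at 37 °C with compound in HBSS/HEPES pH 7.4 containing 1 mM IBMX. cAMP measured by SPA; four-parameter logistic fit, Emax = maximal response as % of isoproterenol maximum.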

T1 sequence (P13945 whole entry): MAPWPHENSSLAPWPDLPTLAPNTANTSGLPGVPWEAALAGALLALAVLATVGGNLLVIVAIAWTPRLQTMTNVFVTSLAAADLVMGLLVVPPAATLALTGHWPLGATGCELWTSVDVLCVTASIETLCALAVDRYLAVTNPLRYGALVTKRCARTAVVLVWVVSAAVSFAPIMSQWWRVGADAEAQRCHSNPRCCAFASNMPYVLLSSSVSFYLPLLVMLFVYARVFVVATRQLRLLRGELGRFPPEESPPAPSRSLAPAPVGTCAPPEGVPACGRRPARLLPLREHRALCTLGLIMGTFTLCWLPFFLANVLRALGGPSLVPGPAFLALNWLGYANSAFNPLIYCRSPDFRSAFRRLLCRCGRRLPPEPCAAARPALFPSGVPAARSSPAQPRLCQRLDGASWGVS

SMILES	Emax
CC(Cc1c[nH]c2c(OCC#N)cccc12)NC[C@H](O)COc1ccccc1-c1ccno1 (stereo partly drawn) [Example 199]	22.8%

Same assay, conditions: % intrinsic activity: maximal response divided by isoproterenol maximal response times 100; transfected CHO cells; average of at least 3 runs

SMILES	Emax (%) ± SEM
CC(C)(Cc1c[nH]c2ccccc12)NC[C@H](O)COc1cccnc1-c1cccs1 [Example 125]	59.2 ± 2.2%
COC(=O)c1ccc(-c2ccccc2OC[C@@H](O)CNC(C)(C)Cc2c[nH]c3ccccc23)s1 [Example 124]	36.1 ± 7.6%
CCOC(=O)c1cccc(-c2cccc3c(CC(C)(C)NC[C@H](O)COc4ccccc4-c4ccon4)c[nH]c23)c1 [Example 41]	73.1 ± 1.0%
COC(=O)c1ccc(-c2cccc3c(CC(C)(C)NC[C@H](O)COc4ccccc4-c4cccs4)c[nH]c23)cc1 [Example 43]	66.6 ± 3.1%
Cc1cc(-c2ccccc2OC[C@@H](O)CNC(C)(C)Cc2c[nH]c3ccccc23)on1 [Example 36]	63.9 ± 1.6%
CC(C)(Cc1c[nH]c2ccccc12)NC[C@H](O)COc1ccccc1-c1cc(C#N)cs1.O=C(O)C(F)(F)F [Example 19]	49.1 ± 4.6%
CC(C)(Cc1c[nH]c2c(NS(=O)(=O)c3ccccc3)cccc12)NC[C@H](O)COc1ccccc1-c1cccs1 [Example 25]	89.6 ± 10.9%
CC(C)(Cc1c[nH]c2c(-c3cccc(C(F)(F)F)c3)cccc12)NC[C@H](O)COc1ccccc1-c1cccs1 [Example 37]	82.0 ± 4.3%
CC(C)(Cc1c[nH]c2ccc(C(N)=O)cc12)NC[C@H](O)COc1ccccc1-c1cccs1 [Example 71]	47.4 ± 1.8%
CC(C)(Cc1c[nH]c2c(OCC#N)cccc12)NC[C@H](O)COc1ccccc1-c1csc(C#N)c1.O=C(O)C(F)(F)F [Example 16]	54.2 ± 2.2%
COC(=O)c1ccc(Oc2cccc3c(CC(C)(C)NC[C@H](O)COc4ccccc4-c4cccs4)c[nH]c23)nc1 [Example 117]	67.6 ± 3.9%
Cc1cc(-c2ccccc2OC[C@@H](O)CNC(C)(C)Cc2c[nH]c3c(OCC#N)cccc23)cs1.O=C(O)C(F)(F)F [Example 18]	52.3 ± 0.7%
CCOC(=O)c1cccc(-c2cccc3c(CC(C)(C)NC[C@H](O)COc4ccccc4-c4cccs4)c[nH]c23)c1 [Example 40]	73.3 ± 4.6%
CC(C)(Cc1c[nH]c2c(Oc3ccc(C#N)cn3)cccc12)NC[C@H](O)COc1ccccc1-c1cccs1 [Example 115]	83.3 ± 4.0%
CC(C)(Cc1c[nH]c2c(-c3ccc(C(F)(F)F)cc3)cccc12)NC[C@H](O)COc1ccccc1-c1ccon1 [Example 105]	69.1 ± 3.8%
COC(=O)c1ccc(-c2cccc3c(CC(C)(C)NC[C@H](O)COc4ccccc4-n4cccc4)c[nH]c23)cc1 [Example 45]	41.9 ± 4.5%
CC(C)(Cc1c[nH]c2c(OCC#N)cccc12)NC[C@H](O)COc1ccccc1-c1ccon1 [Example 133]	60.6 ± 2.4%

The remaining lines, values ahead:

Emax (%) ± SEM	SMILES
72.5 ± 2.2%	COC(=O)c1ccc(-c2cccc3c(CC(C)(C)NC[C@H](O)COc4ccccc4-c4cccs4)c[nH]c23)cc1 [Example 178]
40.8 ± 1.3%	CC(C)(Cc1c[nH]c2ccc(F)cc12)NC[C@H](O)COc1ccccc1-c1ccon1 [Example 167]
46.6 ± 1.9%	C[C@H](Cn1ccc2c(OCC#N)cccc21)NC[C@H](O)COc1ccccc1-c1ccon1 [Example 150]
51.3 ± 7.8%	CC(C)(Cc1c[nH]c2ccccc12)NC[C@H](O)COc1ccccc1-c1cccs1 [Example 157]
47.3 ± 2.3%	CC(C)(Cc1c[nH]c2c(C=Cn3cncn3)cccc12)NCC(O)COc1ccccc1-c1cccs1 (stereo not drawn) [Example 146]
53.0 ± 1.8%	CC(C)(Cc1c[nH]c2cc(F)ccc12)NC[C@H](O)COc1ccccc1-c1nccs1 [Example 159]
32.0 ± 5.5%	CC(C)(NC[C@H](O)COc1ccccc1-c1ccon1)C(=O)N1CCc2ccccc21 [Example 193]

Same assay, conditions: CHO, % intrinsic activity relative to isoproterenol; transfected CHO cells

SMILES	Emax
CC(C)(Cc1c[nH]c2cc(C(=O)O)ccc12)NC[C@H](O)COc1ccccc1-c1nccs1 [Example 204]	67%
CC(C)(Cc1c[nH]c2c(OCC(=O)O)cccc12)NC[C@H](O)COc1ccccc1-n1cccc1 [Example 203]	73.8%

Same assay, conditions: CHO, % intrinsic activity: maximal response divided by isoproterenol maximal response times 100; transfected CHO cells; average of at least 3 runs

SMILES	Emax
CC(C)(Cc1c[nH]c2c(CCc3ccc(C(N)=O)cc3)cccc12)NC[C@H](O)COc1ccccc1-c1cccs1 [Example 220]	81.2 ± 0.6%
CC(C)(Cc1c[nH]c2c(-c3ccc(C(=O)O)cc3)cccc12)NC[C@H](O)COc1ccccc1-c1cccs1 [Example 246]	79.2 ± 3.4%
CC(C)(Cc1c[nH]c2c(OCC#N)cccc12)NC[C@H](O)COc1ccccc1-n1cccc1 [Example 256]	71.4 ± 2.7%
CC(C)(Cc1c[nH]c2c(OCC(=O)O)cccc12)NC[C@H](O)COc1ccccc1-c1ccno1 [Example 233]	52.4 ± 6%
CC(C)(Cc1c[nH]c2c(/C=C/C(=O)O)cccc12)NC[C@H](O)COc1ccccc1-c1cccs1 [Example 227]	87.5 ± 7.5%
CC(C)(Cc1c[nH]c2cc(C(=O)O)ccc12)NC[C@H](O)COc1ccccc1-c1cccs1 [Example 240]	78.7 ± 2.4%
